Common to all, as to test: SelectScreen Kinase Profiling, single point inhibition and IC50 for off-target kinases
Holding throughout (format): biochemical

In assay [1] the target is off-target kinases (Homo sapiens, UniProt P16234, V561D). Particulars: PDGFRA V561D, ATP Km app, ZLYTE.
Assay [2] concerns the target off-target kinases (Homo sapiens, UniProt Q96S53). Particulars: TESK2, LanthaScreen Binding. (In general: In TR-FRET formats the signal depends on donor and acceptor labels being close together.)
Assay [3] concerns the target T1, off-target kinases (Homo sapiens, UniProt P41743).
T1 sequence (P41743 1-596): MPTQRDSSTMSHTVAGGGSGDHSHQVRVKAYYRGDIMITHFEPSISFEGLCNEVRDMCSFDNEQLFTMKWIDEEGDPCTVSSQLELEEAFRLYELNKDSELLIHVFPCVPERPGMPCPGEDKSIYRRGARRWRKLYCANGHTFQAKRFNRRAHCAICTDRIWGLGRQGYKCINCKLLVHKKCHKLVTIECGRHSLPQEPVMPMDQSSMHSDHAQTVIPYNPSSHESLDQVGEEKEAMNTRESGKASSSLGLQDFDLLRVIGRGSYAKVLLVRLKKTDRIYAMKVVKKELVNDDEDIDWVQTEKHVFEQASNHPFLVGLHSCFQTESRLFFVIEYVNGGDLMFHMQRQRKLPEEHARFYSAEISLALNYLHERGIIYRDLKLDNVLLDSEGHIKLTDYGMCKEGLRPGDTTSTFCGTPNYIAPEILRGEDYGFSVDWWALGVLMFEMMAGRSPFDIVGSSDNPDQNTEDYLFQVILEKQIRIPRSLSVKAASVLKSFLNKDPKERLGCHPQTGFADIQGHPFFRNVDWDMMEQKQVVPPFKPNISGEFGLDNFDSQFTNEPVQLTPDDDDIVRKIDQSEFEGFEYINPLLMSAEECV
Particulars: PRKCI (PKC iota), ZLYTE, ATP Km app.

The target in assay [4] is off-target kinases (Homo sapiens, UniProt P00533, L861Q). As to conditions: EGFR (ErbB1) L861Q (mutant), ZLYTE, ATP Km app.
off-target kinases (Homo sapiens, UniProt P00533, L861Q), sequence (P00533 25-1210 L861Q): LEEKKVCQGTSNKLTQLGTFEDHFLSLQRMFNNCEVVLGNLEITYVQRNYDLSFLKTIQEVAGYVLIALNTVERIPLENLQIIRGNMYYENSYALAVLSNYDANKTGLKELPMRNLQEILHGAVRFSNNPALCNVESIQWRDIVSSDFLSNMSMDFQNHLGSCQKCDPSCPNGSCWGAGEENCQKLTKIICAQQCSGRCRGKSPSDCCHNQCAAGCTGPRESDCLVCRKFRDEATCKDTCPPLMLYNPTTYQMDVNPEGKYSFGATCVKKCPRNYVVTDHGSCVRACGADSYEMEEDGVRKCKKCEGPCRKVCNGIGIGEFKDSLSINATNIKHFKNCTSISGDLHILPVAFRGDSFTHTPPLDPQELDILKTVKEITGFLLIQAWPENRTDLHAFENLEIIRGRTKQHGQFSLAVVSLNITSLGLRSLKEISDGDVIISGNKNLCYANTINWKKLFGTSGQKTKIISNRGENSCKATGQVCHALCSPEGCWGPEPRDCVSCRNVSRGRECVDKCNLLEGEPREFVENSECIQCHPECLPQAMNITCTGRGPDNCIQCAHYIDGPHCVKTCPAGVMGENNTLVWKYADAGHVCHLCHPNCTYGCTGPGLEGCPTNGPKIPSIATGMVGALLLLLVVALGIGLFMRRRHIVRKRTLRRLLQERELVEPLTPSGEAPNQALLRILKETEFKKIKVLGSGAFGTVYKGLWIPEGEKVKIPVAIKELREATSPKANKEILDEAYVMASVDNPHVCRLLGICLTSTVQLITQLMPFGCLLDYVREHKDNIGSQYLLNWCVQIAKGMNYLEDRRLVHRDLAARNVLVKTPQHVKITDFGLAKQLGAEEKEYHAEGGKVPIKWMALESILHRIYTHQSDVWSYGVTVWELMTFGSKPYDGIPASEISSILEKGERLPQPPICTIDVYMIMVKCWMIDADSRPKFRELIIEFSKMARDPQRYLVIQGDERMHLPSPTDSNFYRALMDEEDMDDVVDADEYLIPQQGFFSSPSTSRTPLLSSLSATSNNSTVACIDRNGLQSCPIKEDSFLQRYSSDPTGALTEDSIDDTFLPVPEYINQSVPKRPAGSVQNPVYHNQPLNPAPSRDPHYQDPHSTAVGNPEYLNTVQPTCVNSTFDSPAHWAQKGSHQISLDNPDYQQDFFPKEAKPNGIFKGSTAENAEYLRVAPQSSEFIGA
The target of assay [5] is off-target kinases (Homo sapiens, UniProt Q13464). As to conditions: ROCK1, ZLYTE, ATP Km app.
off-target kinases (Homo sapiens, UniProt Q13464), sequence (Q13464 whole entry): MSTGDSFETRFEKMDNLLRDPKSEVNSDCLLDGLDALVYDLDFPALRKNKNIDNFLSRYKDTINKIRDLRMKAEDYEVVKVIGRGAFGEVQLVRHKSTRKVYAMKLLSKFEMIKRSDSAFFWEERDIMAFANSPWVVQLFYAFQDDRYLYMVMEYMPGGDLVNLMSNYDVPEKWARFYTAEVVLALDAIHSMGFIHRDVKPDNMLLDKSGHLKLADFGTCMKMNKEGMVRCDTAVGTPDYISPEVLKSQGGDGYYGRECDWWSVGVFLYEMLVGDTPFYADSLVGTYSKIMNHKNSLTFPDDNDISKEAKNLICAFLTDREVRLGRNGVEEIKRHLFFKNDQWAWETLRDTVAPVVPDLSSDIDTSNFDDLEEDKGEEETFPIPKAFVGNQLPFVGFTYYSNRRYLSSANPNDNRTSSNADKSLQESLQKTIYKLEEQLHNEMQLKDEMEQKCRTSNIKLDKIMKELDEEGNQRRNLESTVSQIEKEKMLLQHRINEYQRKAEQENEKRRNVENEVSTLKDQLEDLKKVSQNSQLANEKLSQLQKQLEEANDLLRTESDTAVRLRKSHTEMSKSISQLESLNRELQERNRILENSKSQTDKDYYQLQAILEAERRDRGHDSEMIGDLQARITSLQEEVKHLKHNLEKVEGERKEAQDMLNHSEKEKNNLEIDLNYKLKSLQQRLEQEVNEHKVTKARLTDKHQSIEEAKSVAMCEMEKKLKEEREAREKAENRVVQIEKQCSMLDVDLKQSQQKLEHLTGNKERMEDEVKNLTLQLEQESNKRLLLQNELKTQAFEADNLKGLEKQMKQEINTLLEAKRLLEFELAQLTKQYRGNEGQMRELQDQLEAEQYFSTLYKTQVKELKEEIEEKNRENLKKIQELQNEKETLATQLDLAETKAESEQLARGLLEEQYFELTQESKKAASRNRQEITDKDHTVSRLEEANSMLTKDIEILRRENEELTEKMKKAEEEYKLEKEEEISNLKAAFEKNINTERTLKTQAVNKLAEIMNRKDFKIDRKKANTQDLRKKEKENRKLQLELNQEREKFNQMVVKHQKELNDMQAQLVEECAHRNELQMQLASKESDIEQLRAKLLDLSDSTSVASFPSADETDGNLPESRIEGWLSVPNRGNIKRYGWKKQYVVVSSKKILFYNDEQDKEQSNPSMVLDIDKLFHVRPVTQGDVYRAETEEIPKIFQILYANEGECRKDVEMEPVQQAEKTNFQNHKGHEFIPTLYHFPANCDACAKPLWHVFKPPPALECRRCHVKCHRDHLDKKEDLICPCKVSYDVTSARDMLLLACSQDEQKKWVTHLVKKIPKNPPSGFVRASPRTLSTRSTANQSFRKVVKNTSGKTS
The target of assay [6] is T2, off-target kinases (Homo sapiens, UniProt P15735).
T2 sequence (P15735 1-406): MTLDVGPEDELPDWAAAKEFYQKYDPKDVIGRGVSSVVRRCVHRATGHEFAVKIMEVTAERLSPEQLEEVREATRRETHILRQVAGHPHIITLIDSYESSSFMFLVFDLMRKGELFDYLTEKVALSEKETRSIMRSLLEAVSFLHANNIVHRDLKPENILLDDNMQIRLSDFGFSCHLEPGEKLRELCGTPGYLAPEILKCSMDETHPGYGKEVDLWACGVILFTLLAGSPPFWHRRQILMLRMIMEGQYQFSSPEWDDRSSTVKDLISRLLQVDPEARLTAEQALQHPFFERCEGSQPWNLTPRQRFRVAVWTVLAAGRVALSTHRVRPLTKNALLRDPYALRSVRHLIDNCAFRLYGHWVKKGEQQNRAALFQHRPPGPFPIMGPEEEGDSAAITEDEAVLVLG
Particulars: PHKG2, ATP Km app, ZLYTE.

The target in assay [7] is off-target kinases (Homo sapiens, UniProt P45983). As to conditions: MAPK8 (JNK1).
off-target kinases (Homo sapiens, UniProt P45983), sequence (P45983 whole entry): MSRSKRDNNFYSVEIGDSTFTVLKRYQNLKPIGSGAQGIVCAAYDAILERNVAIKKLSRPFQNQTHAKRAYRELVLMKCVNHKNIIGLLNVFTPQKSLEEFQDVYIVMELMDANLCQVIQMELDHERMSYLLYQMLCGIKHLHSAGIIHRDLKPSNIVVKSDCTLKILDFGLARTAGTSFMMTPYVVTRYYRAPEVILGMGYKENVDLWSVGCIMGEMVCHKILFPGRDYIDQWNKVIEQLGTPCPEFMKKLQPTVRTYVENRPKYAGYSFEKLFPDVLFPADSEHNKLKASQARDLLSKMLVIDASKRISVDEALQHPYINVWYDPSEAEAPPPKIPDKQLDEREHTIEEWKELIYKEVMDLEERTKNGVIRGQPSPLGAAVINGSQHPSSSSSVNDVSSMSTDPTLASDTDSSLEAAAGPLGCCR

Each structure is given as a SMILES string. Like-named read-outs stand apart in the source and are kept apart here.

off-target kinases (Homo sapiens, UniProt Q96S53), sequence (Q96S53 whole entry): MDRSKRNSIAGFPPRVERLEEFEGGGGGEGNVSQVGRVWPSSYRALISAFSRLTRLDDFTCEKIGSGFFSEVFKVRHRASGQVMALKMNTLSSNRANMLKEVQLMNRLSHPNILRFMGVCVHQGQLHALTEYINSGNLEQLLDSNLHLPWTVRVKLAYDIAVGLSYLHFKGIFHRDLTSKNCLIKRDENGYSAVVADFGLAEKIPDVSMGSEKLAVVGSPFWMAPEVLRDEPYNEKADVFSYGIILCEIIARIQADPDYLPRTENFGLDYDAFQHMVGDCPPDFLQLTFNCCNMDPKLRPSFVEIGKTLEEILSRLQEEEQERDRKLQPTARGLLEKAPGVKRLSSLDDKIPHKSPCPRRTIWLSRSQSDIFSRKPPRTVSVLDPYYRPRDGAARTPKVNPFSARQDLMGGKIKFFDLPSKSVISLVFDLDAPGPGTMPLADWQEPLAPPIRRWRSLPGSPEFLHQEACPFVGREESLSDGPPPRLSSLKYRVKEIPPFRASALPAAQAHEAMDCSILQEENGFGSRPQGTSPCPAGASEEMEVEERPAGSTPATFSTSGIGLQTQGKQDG
off-target kinases (Homo sapiens, UniProt P16234, V561D), sequence (P16234 24-1089 V561D): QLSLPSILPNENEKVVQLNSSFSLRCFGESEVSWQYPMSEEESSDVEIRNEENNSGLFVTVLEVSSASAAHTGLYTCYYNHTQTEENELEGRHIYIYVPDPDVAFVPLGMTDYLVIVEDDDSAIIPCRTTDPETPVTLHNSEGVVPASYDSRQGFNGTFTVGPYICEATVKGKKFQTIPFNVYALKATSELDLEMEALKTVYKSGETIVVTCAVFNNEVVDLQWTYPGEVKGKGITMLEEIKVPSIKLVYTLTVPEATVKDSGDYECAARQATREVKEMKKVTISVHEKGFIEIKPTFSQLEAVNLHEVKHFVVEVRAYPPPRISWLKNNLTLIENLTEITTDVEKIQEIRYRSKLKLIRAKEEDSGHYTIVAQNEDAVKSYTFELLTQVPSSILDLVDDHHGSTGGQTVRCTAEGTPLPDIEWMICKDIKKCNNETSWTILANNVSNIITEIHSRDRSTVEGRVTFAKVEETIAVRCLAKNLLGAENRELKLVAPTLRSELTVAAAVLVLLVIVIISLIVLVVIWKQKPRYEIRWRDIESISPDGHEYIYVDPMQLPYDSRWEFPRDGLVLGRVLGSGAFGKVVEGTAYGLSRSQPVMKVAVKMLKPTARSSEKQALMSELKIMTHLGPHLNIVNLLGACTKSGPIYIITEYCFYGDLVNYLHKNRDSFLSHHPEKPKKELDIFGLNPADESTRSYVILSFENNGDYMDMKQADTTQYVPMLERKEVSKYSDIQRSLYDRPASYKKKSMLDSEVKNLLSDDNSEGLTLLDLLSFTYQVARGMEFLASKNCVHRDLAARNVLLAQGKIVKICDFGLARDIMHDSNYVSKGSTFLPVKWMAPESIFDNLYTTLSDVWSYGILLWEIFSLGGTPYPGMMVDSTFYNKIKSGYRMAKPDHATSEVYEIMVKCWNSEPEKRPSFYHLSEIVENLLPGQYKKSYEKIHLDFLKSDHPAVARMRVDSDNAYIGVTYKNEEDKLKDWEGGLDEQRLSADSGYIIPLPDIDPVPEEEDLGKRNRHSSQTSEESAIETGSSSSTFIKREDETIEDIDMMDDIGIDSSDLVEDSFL

Regarding `N#Cc1cc(-c2ncnc(Nc3ccc(N4CCN(C5COC5)CC4)cc3)n2)ccc1OC1CCOCC1` [Compound 1, 5-(4-((4-(4-(oxetan-3-yl)piperazin-1-yl)phenyl)amino)-1,3,5-triazin-2-yl)-2-((tetrahydro-2H-pyran-4-yl)oxy)benzonitrile], the inhibition was 85% on off-target kinases [1] (read-out: % Inhibition 1); 81% on off-target kinases [1] (read-out: % Inhibition 2); 83% on off-target kinases [1] (read-out: % Inhibition Avg); 14% on off-target kinases [2] (read-out: % Inhibition 1); -3% at off-target kinases [2] (read-out: % Inhibition 2); 6% at off-target kinases [2] (read-out: % Inhibition Avg). The inhibition at off-target kinases [3] (read-out: % Inhibition 1) is 5%; on off-target kinases [3] (read-out: % Inhibition 2) it was 7%; on off-target kinases [3] (read-out: % Inhibition Avg), 6%; at off-target kinases [4] (read-out: % Inhibition 1), 6%; on off-target kinases [4] (read-out: % Inhibition 2) it was 5%; on off-target kinases [4] (read-out: % Inhibition Avg), 5%. Further, the inhibition came out at 6% on off-target kinases [5] (read-out: % Inhibition 1); 14% at off-target kinases [5] (read-out: % Inhibition 2); 10% on off-target kinases [5] (read-out: % Inhibition Avg); 83% at off-target kinases [6] (read-out: % Inhibition 1); 79% on off-target kinases [6] (read-out: % Inhibition 2); 81% on off-target kinases [6] (read-out: % Inhibition Avg). The inhibition at off-target kinases [7] (LanthaScreen Binding, read-out: % Inhibition 1) stood at 57%; on off-target kinases [7] (LanthaScreen Binding, read-out: % Inhibition 2) it was 56%; on off-target kinases [7] (LanthaScreen Binding, read-out: % Inhibition Avg), 57%; at off-target kinases [7] (ZLYTE, ATP 100, read-out: % Inhibition 1), 33%; at off-target kinases [7] (ZLYTE, ATP 100, read-out: % Inhibition 2) it was 18%; at off-target kinases [7] (ZLYTE, ATP 100, read-out: % Inhibition Avg) it was 25%.

The term inhibition denotes the relative decrease from the control value, in per cent.

Source of the values: US11572590B2, “Methods for evaluating tumor cell spheroids using 3D microfluidic cell culture device” (Dana-Farber Cancer Institute, Inc., priority 2017, dated 2023).
